The record followed here is patent US11407719B2, “Anti-inflammatory agents” (Resverlogix Corp., priority 2009, dated 2022).

One assay deals with VCAM-1 mRNA. Kind of assay: Quantification of hVCAM mRNA. It counts as cell-based, human. The following applies: VCAM-1 mRNA by real-time PCR; HUVECs, 1 h pretreatment, tumor necrosis factor-α stimulation 24 h; concentration ≤10 μM. More on the design: key: Active: an active compound is one that causes a ≥20% inhibition in VCAM-1 mRNA at a concentration less than or equal to 10 μM; -1 mRNA at a concentration less than or equal to 10 μM. The protocol: In this example, […] in tissue culture cells was quantitated to measure the transcriptional inhibition of hVCAM when treated with a compound of the invention.
Human umbilical vein endothelial cells (HUVECs) were plated in a 96-well plate (4.0×10^3 cells/well) in 100 μL EGM media and incubated for 24 h prior to the addition of the compound of interest. The cells were pretreated for 1 h with the test compound prior to stimulation with tumor necrosis factor-α. The cells were incubated for an additional 24 h before the cells were harvested. At time of harvest, the spent media was removed from the HUVECs and rinsed in 200 μL PBS. Cell lysis solution (70 μL) was then added the cells in each well and incubated for ˜5-10 min at room temperature, to allow for complete cell lysis and detachment. mRNA was then prepared using the “mRNA Catcher PLUS plate” (Invitrogen), according to the protocol supplied. After the last wash, as much wash buffer as possible was aspirated without allowing the wells to dry. Elution buffer (E3, 70 μL) was then added to each well. mRNA was then eluted by incubating the mRNA Catcher PLUS plate with elution buffer for 5 min at 68° C. and then immediately placing the plate on ice.
The eluted mRNA so isolated was then used in a one-step quantitative real-time PCR reaction, using components of the Ultra Sense Kit together with Applied Biosystems primer-probe mixes. Real-time PCR data was analyzed, normalizing the Ct values for hVCAM to an internal control, prior to determining the fold induction of each unknown sample, relative to the control.

The test system of another assay is hIL-6 mRNA. Kind of assay: Quantification of hIL-6 mRNA. It counts as cell-based, human. Further details: key: Active: an active compound is one that causes a ≥20% inhibition in IL-6 mRNA at a concentration less than or equal to 10 μM. The settings on record: IL-6 mRNA by real-time PCR; differentiated U937 cells, 1 h pretreatment, lipopolysaccharide stimulation 3 h; concentration ≤10 μM. The protocol:
In this example, […] in tissue culture cells was quantitated to measure the transcriptional inhibition of hIL-6 when treated with a compound of the invention.
A human leukemic monocyte lymphoma cell line (U937) was plated (3.2×10^5 cells per well) in a 96-well plate in 100 μL RPMI-1640, and differentiated for 3 days prior to the addition of the compound of interest. The cells were pretreated for 1 h with the test compound prior to stimulation with lipolysaccharide from Escherichia coli. The cells were incubated at 37° C. for 3 h before the cells were harvested. At time of harvest, the spent media was removed from the cells and the cells were rinsed in 200 μL PBS. Cell lysis solution (70 μL) was added the cells in each well and incubated for 5-10 min at room temperature, to allow for complete cell lysis and detachment. mRNA was then prepared using the “mRNA Catcher PLUS plate” (Invitrogen), according to the protocol supplied. After the last wash, as much wash buffer as possible was aspirated without allowing the wells to dry. Elution buffer (E3, 70 μL) was then added to each well. mRNA was then eluted by incubating the mRNA Catcher PLUS plate with Elution Buffer for 5 min at 68° C. and then immediately placing the plate on ice.
The eluted mRNA isolated was then used in a one-step quantitative real-time PCR reaction, using components of the Ultra Sense Kit together with Applied Biosystems primer-probe mixes. Real-time PCR data was analyzed, normalizing the Ct values for hIL-6 to an internal control, prior to determining the fold induction of each unknown sample, relative to the control.

Structures are written as SMILES.

With `COc1cc(OC)c2c(=O)[nH]c(-c3cc(C)c(OCCN4C(=O)CCC4=O)c(C)c3)nc2c1` [1-(2-(4-(5,7-Dimethoxy-4-oxo-3,4-dihydroquinazolin-2-yl)-2,6-dimethylphenoxy)ethyl)pyrrolidine-2,5-dione], the “Inhibition of VCAM-1 expression” value with VCAM-1 mRNA is “Active”. In the assay on hIL-6 mRNA, the “Inhibition of IL-6 expression” value is “Active”.

In the case of `COc1cc(OC)c2c(=O)[nH]c(-c3cc(C)c(OCCN4Cc5ccccc5C4)c(C)c3)nc2c1` [2-(4-(2-(Isoindolin-2-yl)ethoxy)-3,5-dimethylphenyl)-5,7-dimethoxyquinazolin-4(3H)-one], the “Inhibition of VCAM-1 expression” value in the assay on VCAM-1 mRNA is given as “Active”. For the same compound, in the assay with hIL-6 mRNA, the “Inhibition of IL-6 expression” value is listed as “Active”.

Consider `COc1cccc2c(=O)[nH]c(-c3ccc(N4CCN(C(C)C)CC4)cc3)nc12` [2-(4-(4-Isopropylpiperazin-1-yl)phenyl)-8-methoxyquinazolin-4(3H)-one], for which the “Inhibition of VCAM-1 expression” value in the assay with VCAM-1 mRNA is recorded as “Active”. For the same compound, in the assay with hIL-6 mRNA, the “Inhibition of IL-6 expression” value is “Active”.

Take `COc1cc(OC)c2c(=O)[nH]c(-c3ccc(N4CCC(NC(C)=O)C4)cc3)nc2c1` (centres unmarked) [N-(1-(4-(5,7-Dimethoxy-4-oxo-3,4-dihydroquinazolin-2-yl)phenyl)pyrrolidin-3-yl)acetamide]: the “Inhibition of VCAM-1 expression” value in the assay on VCAM-1 mRNA was “Active”. In addition, the “Inhibition of IL-6 expression” value in the assay with hIL-6 mRNA is “Active”.

For the compound `COc1cc(OC)c2c(=O)[nH]c(-c3ccc(N4CCN(C(=O)CC(F)(F)F)CC4)cc3)nc2c1` [5,7-Dimethoxy-2-(4-(4-(3,3,3-trifluoropropanoyl)piperazin-1-yl)phenyl)quinazolin-4(3H)-one], the “Inhibition of VCAM-1 expression” value in the assay on VCAM-1 mRNA is “Active”. Besides, in the assay on hIL-6 mRNA, the “Inhibition of IL-6 expression” value was “Active”.

Take `COc1cccc(-c2nc3cc(OC)cc(OC)c3c(=O)[nH]2)c1` [5,7-Dimethoxy-2-(3-methoxyphenyl)quinazolin-4(3H)-one]: the “Inhibition of VCAM-1 expression” value in the assay with VCAM-1 mRNA was “Active”. In the assay with hIL-6 mRNA, the “Inhibition of IL-6 expression” value is “Active”.

`COCCOc1cc(OC)cc2nc(-c3cc(C)nc(C)c3)[nH]c(=O)c12` [2-(2,6-Dimethylpyridin-4-yl)-7-methoxy-5-(2-methoxyethoxy)quinazolin-4(3H)-one]: in the assay with VCAM-1 mRNA, the “Inhibition of VCAM-1 expression” value is “Inactive”. In addition, the “Inhibition of IL-6 expression” value with hIL-6 mRNA is given as “Active”.

`COc1cc(OC)c2c(=O)[nH]c(-c3ccc4[nH]c(CN(C)C)cc4c3)nc2c1` [2-(2-((Dimethylamino)methyl)-1H-indol-5-yl)-5,7-dimethoxyquinazolin-4(3H)-one]: in the assay on VCAM-1 mRNA, the “Inhibition of VCAM-1 expression” value is “Active”. Also, the “Inhibition of IL-6 expression” value in the assay on hIL-6 mRNA is recorded as “Active”.

On to `COc1cc(OC)c2c(=O)[nH]c(-c3cc(C)c(OCCN4CCOCC4)c(C)c3)nc2c1` [2-(3,5-dimethyl-4-(2-morpholinoethoxy)phenyl)-5,7-dimethoxyquinazolin-4(3H)-one], for which, in the assay on VCAM-1 mRNA, the “Inhibition of VCAM-1 expression” value is listed as “Active”. Moreover, the “Inhibition of IL-6 expression” value with hIL-6 mRNA is “Active”.

As for `COc1cc(OC)c2c(=O)[nH]c(-c3ccc(N4CCCN(C)CC4)cc3)nc2c1` [5,7-Dimethoxy-2-(4-(4-methyl-1,4-diazepan-1-yl)phenyl)quinazolin-4(3H)-one], in the assay with VCAM-1 mRNA, the “Inhibition of VCAM-1 expression” value is “Active”. The “Inhibition of IL-6 expression” value in the assay with hIL-6 mRNA is given as “Active”.

With `COc1cc2nc(-c3ccc(N(C)C)c4ccccc34)[nH]c(=O)c2cc1OC` [2-(4-(dimethylamino)naphthalen-1-yl)-6,7-dimethoxyquinazolin-4(3H)-one], the “Inhibition of VCAM-1 expression” value in the assay on VCAM-1 mRNA is reported as “Active”. Moreover, in the assay with hIL-6 mRNA, the “Inhibition of IL-6 expression” value was “Active”.

On to `COc1cc(OC)c2c(=O)[nH]c(-c3ccc(N4CCN(C(=O)C5CC5)CC4)cc3)nc2c1` [2-(4-(4-(Cyclopropanecarbonyl)piperazin-1-yl)phenyl)-5,7-dimethoxyquinazolin-4(3H)-one], for which the “Inhibition of VCAM-1 expression” value in the assay with VCAM-1 mRNA was “Active”. For the same compound, in the assay with hIL-6 mRNA, the “Inhibition of IL-6 expression” value is recorded as “Active”.

As for `COc1cc(OC)c2c(=O)[nH]c(-c3ccc(N4CCN(C(C)=O)CC4)cc3)nc2c1` [2-(4-(4-Acetylpiperazin-1-yl)phenyl)-5,7-dimethoxyquinazolin-4(3H)-one], in the assay with VCAM-1 mRNA, the “Inhibition of VCAM-1 expression” value is “Active”. Besides, the “Inhibition of IL-6 expression” value in the assay on hIL-6 mRNA is reported as “Active”.
